Patent US8431593B2, “Heteroaryl amide derivatives” (H. Lundbeck A/S, priority 2006, dated 2013)
Read-outs that look alike come from different tables or passages of the source.

Molecular target: T1, P2X7 receptor (Homo sapiens, UniProt Q99572)
T1 construct: host or cells: SH-SY5Y
T1 sequence (Q99572 1-595): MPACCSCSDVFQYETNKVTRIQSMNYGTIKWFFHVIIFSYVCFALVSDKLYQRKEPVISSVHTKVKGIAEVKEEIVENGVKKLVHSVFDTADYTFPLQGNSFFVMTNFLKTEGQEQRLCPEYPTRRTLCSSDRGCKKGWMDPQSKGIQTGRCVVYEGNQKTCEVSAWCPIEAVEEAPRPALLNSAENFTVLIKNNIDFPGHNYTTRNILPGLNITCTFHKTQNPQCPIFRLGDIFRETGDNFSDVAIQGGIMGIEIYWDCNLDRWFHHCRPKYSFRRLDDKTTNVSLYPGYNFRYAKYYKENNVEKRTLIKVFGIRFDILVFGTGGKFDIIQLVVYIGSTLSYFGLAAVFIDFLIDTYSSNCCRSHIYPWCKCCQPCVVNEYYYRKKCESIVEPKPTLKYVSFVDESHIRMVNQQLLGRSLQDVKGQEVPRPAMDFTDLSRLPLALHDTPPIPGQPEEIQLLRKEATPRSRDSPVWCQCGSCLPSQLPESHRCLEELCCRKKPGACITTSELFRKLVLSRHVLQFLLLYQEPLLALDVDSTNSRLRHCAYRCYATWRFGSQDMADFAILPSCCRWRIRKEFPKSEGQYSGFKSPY
Assay: P2X7 calcium mobilization assay, high throughput, antagonist activity (Example 4A)
Type: cell-based
Summary of the method: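 Cells plated 100,000/well the day before; after 1 h dye loading and one rinse, cells were preincubated 1 h at room temperature with test compound. Calcium mobilization then read on FLIPR^TETRA; maximum RFU corrected by subtracting mean no-agonist response and referenced to mean agonist-control maximum.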

[1] = fluorescence response of cells exposed to 80 μM 2′(3′)-O-(4-benzoyl-benzoyl)adenosine 5′-triphosphate, Example 4A, read-out: IC50
[2] = 50% decrease in the fluorescence response of cells exposed to 80 μM of 2′(3′)-O-(4-benzoyl-benzoyl)adenosine 5′-triphosphate, Example 4A, read-out: IC50
[3] = 50% decrease in the fluorescence response of cells exposed to 80 μM 2′(3′)-O-(4-benzoyl-benzoyl)adenosine 5′-triphosphate, Example 4A, read-out: IC50
[4] = SH-SY5Y cells, 50% decrease in fluorescence response to 80 μM BzATP, read-out: IC50
[5] = 50% decrease in the fluorescence response of cells exposed to 80 μM of 2′(3′)-O-(4-benzoyl-benzoyl)adenosine 5′-triphosphate, determined as in Example 4A, read-out: IC50
[6] = P2X7 calcium mobilization, Example 4A, 50% decrease in the fluorescence response of cells exposed to 80 μM of (2′(3′)-O-(4-benzoyl-benzoyl)adenosine 5′-triphosephate), read-out: IC50

Q: Which IC50 does the source give for `CC(C)CC(CNC(=O)c1cccc2nc(CC(=O)N3CCC4(CC3)OCCO4)cn12)c1ccccc1` (stereo not shown) [Compound 247, 2-[2-(1,4-dioxa-8-azaspiro[4.5]dec-8-yl)-2-oxoethyl]-N-(4-methyl-2-phenylpentyl)imidazo [1,2-a]pyridine-5-carboxamide] here?
A: < 2000 nM

Q: With `CN(C)C(=O)NCCc1cn2c(C(=O)NCC34CC5CC(CC(C5)C3)C4)cccc2n1` [Compound 268, N-(adamantan-1-ylmethyl)-2-{2-[(dimethylcarbamoyl)amino]ethyl} imidazo[1,2-a] pyridine-5-carboxamide] as the compound, how does the IC50 [1] read?
A: < 2000 nM

Q: With `N[C@@H]1CCN(Cc2cn3c(C(=O)NCC(CC4CCCC4)c4ccccc4)cccc3n2)C1` (stereo partly shown) [Compound 786, 2-[(3-aminopyrrolidin-1-yl)methyl]-N-(3-cyclopentyl-2-phenylpropyl) imidazo[1,2-a] pyridine-5-carboxamide] as the compound, how does the IC50 [2] read?
A: < 2000 nM

Q: `O=C(NCC12CC3CC(CC(C3)C1)C2)c1cccc2nc(C(=O)N3CCNCC3)cn12` [Compound 603, N-(adamantan-1-ylmethyl)-2-(piperazin-1-ylcarbonyl) imidazo[1,2-a]pyridine-5-carboxamide] was tested. Which IC50 [3] did it give?
A: < 2000 nM

Q: For `O=C(NCC12CC3CC(CC(C3)C1)C2)c1cccc2nc(CC(=O)N3CCC(O)CC3)cn12` [Compound 54, N-(adamantan-1-ylmethyl)-2-[2-(4-hydroxypiperidin-1-yl)-2-oxoethyl]imidazo[1,2-a]pyridine-5-carboxamide], which IC50 [4] is on record?
A: < 2000 nM

Q: Which IC50 [5] does the source give for `CC(C)CC(CNC(=O)c1cccc2nc(CN3CC[C@@H](N)C3)cn12)c1cccnc1` (stereo partly drawn) [Compound 823, 2-{[(3R)-3-aminopyrrolidin-1-yl]methyl}-N-(4-methyl-2-pyridin-3-ylpentyl)imidazo[1,2-a]pyridine-5-carboxamide] here?
A: < 2000 nM

Q: For `O=C(Cc1cn2c(C(=O)NCC3(N4CCOCC4)CCCCC3)cccc2n1)NC1(CO)CCCC1` [Compound 988, 2-(2-{[1-(hydroxymethyl)cyclopentyl]amino}-2-oxoethyl)-N-[(1-morpholin-4-ylcyclohexyl)methyl] imidazo[1,2-a] pyridine-5-carboxamide], which IC50 [5] is on record?
A: < 2000 nM

Q: How did the IC50 [2] turn out when `CC(C)CC(CNC(=O)c1cccc2nc(CSCCN)cn12)c1cccnc1` (stereo not shown) [Compound 744, 2-{[(2-aminoethyl)thio]methyl}-N-(4-methyl-2-pyridin-3-ylpentyl)imidazo [1,2-a]pyridine-5-carboxamide] was run?
A: < 2000 nM

Q: For `CC1(O)CCN(C(=O)Cc2cn3c(C(=O)NCC45CC6CC(CC(C6)C4)C5)cccc3n2)C1` (stereo not shown) [Compound 60, N-(adamantan-1-ylmethyl)-2-[2-(3-hydroxy-3-methylpyrrolidin-1-yl)-2-oxoethyl]imidazo[1,2-a]pyridine-5-carboxamide], which IC50 [4] is on record?
A: < 2000 nM

Q: `CC1(C)[C@H]2CC[C@@H](CNC(=O)c3cccc4nc(C(=O)N[C@@H]5CCCC[C@H]5O)cn34)[C@@H]1C2` [Compound 519, 5-N-{[(1S,2R,5S)-6,6-dimethylbicyclo[3.1.1]hept-2-yl]methyl}-2-N-[(1R,2R)-2-hydroxycyclohexyl] imidazo[1,2-a]pyridine-2,5-dicarboxamide] was tested. Which IC50 [3] did it give?
A: < 2000 nM

Q: `CC(C)CC(CNC(=O)c1cccc2nc(C(C)N3CCOCC3)cn12)c1ccc(Cl)cc1` (stereo not shown) [Compound 1037, N-[2-(4-chlorophenyl)-4-methylpentyl]-2-(1-morpholin-4-ylethyl) imidazo[1,2-a]pyridine-5-carboxamide] was tested. Which IC50 [6] did it give?
A: < 2000 nM

Q: With `CNC(=O)c1ccc(NC(=O)Cc2cn3c(C(=O)NCC4CCCCCC4)cccc3n2)cc1` [Compound 957, N-(cycloheptylmethyl)-2-(2-{[4-(methylcarbamoyl)phenyl]amino}-2-oxoethyl) imidazo[1,2-a] pyridine-5-carboxamide] as the compound, how does the IC50 [5] read?
A: < 2000 nM

Q: With `O=C(NCC12CC3CC(CC(C3)C1)C2)c1cccc2nc(CN3CCSCC3)cn12` [Compound 352, N-(adamantan-1-ylmethyl)-2-(thiomorpholin-4-ylmethyl)imidazo[1,2-a]pyridine-5-carboxamide] as the compound, how does the IC50 [1] read?
A: < 2000 nM

Q: With `CCC(=O)NCCc1cn2c(C(=O)NCC34CC5CC(CC(C5)C3)C4)cccc2n1` [Compound 201, N-(adamantan-1-ylmethyl)-2-[2-(propionylamino)eth-yl]imidazo[1,2-a]pyridine-5-carboxamide] as the compound, how does the IC50 [4] read?
A: < 2000 nM

Q: `CCN(CCO)C(=O)c1cn2c(NC(=O)CC34CC5CC(CC(C5)C3)C4)cccc2n1` [Compound 414, 5-[(adamantan-1-ylacetyl)amino]-N-ethyl-N-(2-hydroxyethyl)imidazo [1,2-a]pyridine-2-carboxamide] was tested. Which IC50 [1] did it give?
A: < 2000 nM

Q: Which IC50 [4] does the source give for `CC(C)CNC(=O)Cc1cn2c(C(=O)NCC34CC5CC(CC(C5)C3)C4)cccc2n1` [Compound 18, N-(adamantan-1-ylmethyl)-2-[2 (isobutylamino)-2-oxoethyl]imidazo[1,2-a]pyridine-5-carboxamide] here?
A: < 2000 nM

Q: For `CCC(COC)NC(=O)Cc1cn2c(C(=O)NCC(CC(C)C)c3ccccc3)cccc2n1` (stereo not shown) [Compound 231, 2-(2-{[1-(methoxymethyl)propyl]amino}-2-oxoethyl)-N-(4-methyl-2-phenylpentyl) imidazo [1,2-a]pyridine-5-carboxamide], which IC50 [1] is on record?
A: < 2000 nM

Q: `Cc1ccc(C(CNC(=O)c2cccc3nc(Cn4nnc(CCO)n4)cn23)CC(C)C)cc1` (stereo not shown) [Compound 917, 2-{[5-(2-hydroxyethyl)-2H-tetrazol-2-yl]methyl}-N-[4-methyl-2-(4-methylphenyl)pentyl] imidazo [1,2-a]pyridine-5-carboxamide] was tested. Which IC50 [5] did it give?
A: < 2000 nM

Q: `CCCCC(C(=O)OCC)c1cn2c(C(=O)NCC34CC5CC(CC(C5)C3)C4)cccc2n1` (stereo not shown) [Compound 906, ethyl 2-{5-[(adamantan-1-ylmethyl)carbamoyl]imidazo[1,2-a]pyridin-2-yl} hexanoate] was tested. Which IC50 [5] did it give?
A: < 2000 nM

Q: How did the IC50 [5] turn out when `CC(C)(C)[Si](C)(C)OCCCn1ccc(NCc2cn3c(C(=O)NCC45CC6CC(CC(C6)C4)C5)cccc3n2)n1` [Compound 999, N-(adamantan-1-ylmethyl)-2-({[1-(3-{[tert-butyl (dimethyl)silyl]oxy}propyl)-1H-pyrazol-3-yl]amino}methyl) imidazo[1,2-a] pyridine-5-carboxamide] was run?
A: < 2000 nM

Q: Which IC50 [5] does the source give for `O=C(NCC12CC3CC(CC(C3)C1)C2)c1cccc2nc(Cn3nnnc3-c3ccncc3)cn12` [Compound 818, N-(adamantan-1-ylmethyl)-2-[(5-pyridin-4-yl-1H-tetrazol-1-yl)methyl]imidazo [1,2-a]pyridine-5-carboxamide] here?
A: < 2000 nM

Q: For `O=C(NCC1(c2ccc(C(F)(F)F)cc2)CCCCC1)c1cccc2nc(CN3CCCC3)cn12` [Compound 1044, 2-(pyrrolidin-1-ylmethyl)-N-({1-[4-(trifluoromethyl)phenyl]cyclohexyl}methyl) imidazo[1,2-a] pyridine-5-carboxamide], which IC50 [6] is on record?
A: < 2000 nM

Q: For `O=C(Cc1cn2c(C(=O)NCC34CC5CC(CC(C5)C3)C4)cccc2n1)NC1CCC1` [Compound 151, N-(adamantan-1-ylmethyl)-2-[2-(cyclobutylamino)-2-oxoethyl]imidazo[1,2-a]pyridine-5-carboxamide], which IC50 [4] is on record?
A: < 2000 nM

Q: With `NC(=O)CCNC(=O)c1cn2c(C(=O)NCC34CC5CC(CC(C5)C3)C4)cccc2n1` [Compound 77, 5-N-(adamantan-1-ylmethyl)--(3-amino-3-oxopropyl)imidazo[1,2-a]pyridine-2,5-dicarboxamide] as the compound, how does the IC50 [4] read?
A: < 2000 nM

Q: How did the IC50 [4] turn out when `CC(NC(=O)c1cn2c(C(=O)NCC34CC5CC(CC(C5)C3)C4)cccc2n1)C(N)=O` (stereo not shown) [Compound 79, 5-N-(adamantan-1-ylmethyl)--(2-amino-1-methyl-2-oxoethyl)imidazo[1,2-a]pyridine-2,5-dicarboxamide] was run?
A: < 2000 nM

Q: Which IC50 [5] does the source give for `CC(C)CC(CNC(=O)Cc1cn2c(C(=O)NC3CCCCC3)cccc2n1)c1ccc(Cl)cc1` (stereo not shown) [Compound 975, 2-(2-{[2-(4-chlorophenyl)-4-methylpentyl]amino}-2-oxoethyl)-N-cyclohexylimidazo [1,2-a]pyridine-5-carboxamide] here?
A: < 2000 nM

Q: For `CC(C)CN(C)C(=O)c1cn2c(NC(=O)CC34CC5CC(CC(C5)C3)C4)cccc2n1` [Compound 367, 5-[(adamantan-1-ylacetyl)amino]-N-isobutyl-N-methylimidazo[1,2-a]pyridine-2-carboxamide], which IC50 [1] is on record?
A: < 2000 nM

Q: With `CC(c1cn2c(C(=O)NCC34CC5CC(CC(C5)C3)C4)cccc2n1)N1CC[C@@H](N)C1` (stereo partly drawn) [Compound 205, N-(adamantan-1-ylmethyl)-2-{1-[(3R)-3-aminopyrrolidin-1-yl]ethyl}imidazo[1,2-a]pyridine-5-carboxamide] as the compound, how does the IC50 [4] read?
A: < 2000 nM
